Test results from ChEMBL document CHEMBL2440061, “Synthesis and pharmacological evaluation of carboxycoumarins as a new antitumor treatment targeting lactate transport in cancer cells” (Bioorg Med Chem, 2013).
In brackets after ≈: the same amount, converted by molar mass. Activity calls are given as the source filed them. The calls are words filed in the database; no cut-off is given here.

What was measured:
SiHa [1] = assay: Cytotoxicity against human SiHa cells in lactate-containing medium after 72 hrs by MTT assay; format: functional, cell-based
SiHa [2] = assay: Cytotoxicity against human SiHa cells in glucose-containing medium after 72 hrs by MTT assay; format: functional, cell-based
[3] = molecular target: T1, Monocarboxylate transporter 4 (Homo sapiens, UniProt O15427); assay: Inhibition of MCT4-mediated [14C]-lactate uptake in human SiHa cells in lactate-containing medium assessed as remaining lactate concentration in culture medium after 24 hrs by liquid scintillation counting; format: cell-based
T1 sequence (O15427 whole entry): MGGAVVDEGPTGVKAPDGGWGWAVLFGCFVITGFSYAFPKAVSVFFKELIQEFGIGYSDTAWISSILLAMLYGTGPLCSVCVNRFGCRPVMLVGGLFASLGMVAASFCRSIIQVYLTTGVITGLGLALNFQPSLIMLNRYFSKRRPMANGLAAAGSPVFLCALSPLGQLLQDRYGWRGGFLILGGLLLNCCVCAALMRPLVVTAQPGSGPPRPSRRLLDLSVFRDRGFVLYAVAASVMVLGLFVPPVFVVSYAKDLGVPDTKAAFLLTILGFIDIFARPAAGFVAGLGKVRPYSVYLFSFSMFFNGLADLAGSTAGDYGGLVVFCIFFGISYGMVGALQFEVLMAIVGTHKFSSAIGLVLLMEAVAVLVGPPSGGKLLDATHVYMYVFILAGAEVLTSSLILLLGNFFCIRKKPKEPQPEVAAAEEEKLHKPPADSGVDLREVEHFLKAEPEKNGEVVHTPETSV

[4] = molecular target: T1, Monocarboxylate transporter 4; details: siha
Description: Inhibition of MCT4-mediated [14C]-lactate uptake in human SiHa cells in lactate-containing medium assessed as remaining lactate concentration in culture medium after 12 mins by liquid scintillation counting

Mus musculus [5] = assay: Toxicity in C57Bl6/J mouse assessed as induction of hemorrhage at 1.5 mg/kg, ip; format: organism-based; parameters: dose 1.5 mg/kg, route intraperitoneal; details: in vivo
Mus musculus [6] = assay: Toxicity in C57Bl6/J mouse assessed as mortality at 1.5 mg/kg, ip; format: organism-based; parameters: dose 1.5 mg/kg, route intraperitoneal; details: in vivo
[7] = molecular target: T2, Monocarboxylate transporter 4 (Homo sapiens) (UniProt O15427); assay: Ratio of alpha-cyano-4-hydroxycinnamate IC50 to compound IC50 for MCT4-mediated [14C]-lactate uptake in human SiHa cells in lactate-containing medium assessed as remaining lactate concentration in culture medium after 24 hrs by liquid scintillation counting; format: cell-based
T2 sequence (whole entry): T1 sequence (O15427 whole entry)

Mus musculus [8] = assay: Toxicity in C57Bl6/J mouse assessed as induction of anticoagulant at 3 mg/kg, ip by prothrombin time test; format: organism-based; parameters: dose 3 mg/kg, route intraperitoneal; details: in vivo
SiHa [9] = assay: Cytotoxicity against human SiHa cells in glucose-containing medium after 72 hrs by MTT assay absence of pyruvate; format: functional, cell-based
[10] = Chemical stability of the compound in simulated gastric fluid assessed as compound remaining after 1 hr; format: physicochemical; details: read-out: Stability
SiHa [11] = assay: Cytotoxicity against human SiHa cells in glucose-containing medium at 10 uM under hypoxia condition after 72 hrs by MTT assay; format: functional, cell-based
[12] = Metabolic stability in human plasma assessed as compound remaining after 1 hr; format: ADME, cell-free; details: read-out: Stability
[13] = AUC (infinity) in mouse at 3 mg/kg, ip; format: ADME, organism-based; parameters: time infinity, dose 3 mg/kg, route intraperitoneal; details: plasma
[14] = Cmax in mouse at 3 mg/kg, ip; format: ADME, organism-based; parameters: dose 3 mg/kg, route intraperitoneal; details: in vivo
[15] = Metabolic stability in mouse plasma assessed as compound remaining after 1 hr; format: ADME, cell-free; details: read-out: Stability
[16] = Tmax in mouse at 3 mg/kg, ip; format: ADME, organism-based; parameters: dose 3 mg/kg, route intraperitoneal; details: in vivo
[17] = Half life in mouse at 3 mg/kg, ip; format: ADME, organism-based; parameters: dose 3 mg/kg, route intraperitoneal; details: in vivo
SiHa [18] = assay: Cytotoxicity against human SiHa cells in glucose-containing medium at 10 uM under normoxia condition after 72 hrs by MTT assay; format: functional, cell-based
[19] = Half life in human liver microsomes; format: ADME, Microsome
[20] = Half life in human hepatocytes; format: ADME, cell-based, Hepatocyte
SiHa [21] = assay: Induction of apoptosis in human SiHa cells in lactate-containing medium assessed as caspase-3 cleavage at 10 uM after 48 hrs by Western blot analysis; format: functional, cell-based
[22] = Chemical stability of the compound in simulated intestinal fluid assessed as compound remaining after 4 hrs; format: physicochemical; details: read-out: Stability
[23] = Half life in mouse liver microsomes; format: ADME, Microsome
SiHa [24] = assay: Cytotoxicity against human SiHa cells in glucose-containing medium after 72 hrs by MTT assay presence of pyruvate; format: functional, cell-based
Mus musculus [25] = assay: Toxicity in C57Bl6/J mouse assessed as mortality at 3 mg/kg, ip; format: organism-based; parameters: dose 3 mg/kg, route intraperitoneal; details: in vivo
[26] = Aqueous solubility of the compound in PBS buffer at pH 7.4; format: physicochemical

Cc1c(C(=O)O)c(=O)oc2cc(O)ccc12
EC50 (SiHa [1]): > 30 µM | Activity (SiHa [2]): inactive | IC50 [3]: > 30 µM

O=C(O)c1cc2ccc(OCc3ccccc3)cc2oc1=O
EC50 (SiHa [1]): 9.1 µM | Activity (SiHa [2]): inactive | IC50 [3]: 1.9 µM

CCn1c(=O)c(C(=O)O)cc2ccc(OCc3ccccc3)cc21
EC50 (SiHa [1]): > 30 µM | Activity (SiHa [2]): inactive | IC50 [3]: > 30 µM

CC(C)=CCC/C(C)=C/COc1ccc2cc(C(=O)O)c(=O)oc2c1
Activity (SiHa [1]): inactive

N#C/C(=C\c1ccc(O)cc1)C(=O)O [alpha-CYANO-4-HYDROXYCINNAMIC ACID]
EC50 (SiHa [1]): 10.7 µM | Activity (SiHa [2]): inactive | IC50 [3]: 43.5 µM | IC50 [4]: 10.7 µM

Cn1c(=O)c(C(=O)O)cc2ccc(OCc3ccccc3)cc21
EC50 (SiHa [1]): > 30 µM | Activity (SiHa [2]): inactive | IC50 [3]: > 30 µM

CN(C)c1ccc2cc(C(=O)O)c(=O)oc2c1
EC50 (SiHa [1]): 2.9 µM | Activity (SiHa [2]): inactive | IC50 [3]: 1.4 µM

O=C(O)c1cc2ccc(OC3Cc4ccccc4C3)cc2oc1=O
Activity (SiHa [1]): inactive

COc1ccc2cc(C(=O)O)c(=O)oc2c1
EC50 (SiHa [1]): 9.8 µM | Activity (SiHa [2]): inactive | IC50 [3]: 2.3 µM

Cc1c(C(=O)O)c(=O)oc2cc(OCc3ccccc3)ccc12
EC50 (SiHa [1]): > 30 µM | Activity (SiHa [2]): inactive | IC50 [3]: > 30 µM

O=C(O)c1cc2ccc(OCn3nnc4ccccc43)cc2oc1=O
Activity (SiHa [1]): inactive

O=C(O)c1cc2ccc(OCc3ccccc3)cc2n(Cc2ccccc2)c1=O
EC50 (SiHa [1]): > 30 µM | Activity (SiHa [2]): inactive | IC50 [3]: > 30 µM

O=C(O)c1cc2ccc(OCc3ccc(F)cc3)cc2oc1=O
EC50 (SiHa [1]): 3.9 µM | Activity (SiHa [2]): inactive | IC50 [3]: 1.25 µM

O=C(O)c1cc2ccc(OCCc3ccccc3)cc2oc1=O
EC50 (SiHa [1]): 5.6 µM | Activity (SiHa [2]): inactive | IC50 [3]: 2.4 µM

CC(=O)CC(c1ccccc1)c1c(O)c2ccccc2oc1=O (stereo unspecified) [WARFARIN]
Activity (Mus musculus [5]): Toxic | Activity (Mus musculus [6]): Toxic

COc1ccc2c(C)c(C(=O)O)c(=O)oc2c1
EC50 (SiHa [1]): > 30 µM | Activity (SiHa [2]): inactive | IC50 [3]: > 30 µM

O=C(O)c1cc2cc3c4c(c2oc1=O)CCCN4CCC3
EC50 (SiHa [1]): 1.2 µM | Activity (SiHa [2]): inactive | IC50 [3]: 0.73 µM | Ratio IC50 [7]: 50

O=C(O)c1cc2ccc(N3CCCC3)cc2oc1=O
EC50 (SiHa [1]): 14.3 µM | Activity (SiHa [2]): inactive | IC50 [3]: > 30 µM

CN(Cc1ccccc1)c1ccc2cc(C(=O)O)c(=O)oc2c1
Activity (Mus musculus [8]): Non-toxic | Activity (SiHa [9]): inactive | EC50 (SiHa [1]): 0.22 µM | remaining at 1 h [10]: 105% | Activity (SiHa [11]): inactive | remaining at 1 h [12]: 44% | AUC(0-inf) [13]: 935 ng·h/mL | Cmax [14]: 1250 ng/mL | remaining at 1 h [15]: 103% | Tmax [16]: 0.167 h | half-life [17]: 4.5 h | Activity (SiHa [18]): inactive | Activity (SiHa [2]): inactive | half-life [19]: > 1 h | IC50 [3]: 0.059 µM | half-life [20]: > 2 h | Activity (SiHa [21]): Active | remaining at 4 h [22]: 91% | half-life [23]: > 1 h | Activity (SiHa [24]): inactive | Activity (Mus musculus [25]): Non-toxic | IC50 [4]: 0.01 µM | solubility [26]: 58 µM (≈ 17.9 µg/mL) | Ratio IC50 [7]: 3

O=C(O)c1cc2ccc(OCc3ccccc3)cc2[nH]c1=O
EC50 (SiHa [1]): > 30 µM | Activity (SiHa [2]): inactive | IC50 [3]: > 30 µM

O=C(O)c1cc2ccc(OCc3cc(C(F)(F)F)cc(C(F)(F)F)c3)cc2oc1=O
Activity (SiHa [1]): inactive

O=C(O)c1cc2ccc(N3CCOCC3)cc2oc1=O
EC50 (SiHa [1]): 17.5 µM | Activity (SiHa [2]): inactive | IC50 [3]: 7.9 µM

O=C(O)c1cc2ccc(OCc3cccc(F)c3)cc2oc1=O
Activity (SiHa [1]): inactive
